Laboratory results reported in US12630555B2, “Substituted pyrrolo[1,2-a]quinoxalin-4(5H)-ones as CX3CR1 antagonists” (Drexel University, priority 2017, dated 2026).
“And” between values parts separate entries of the source, which are not always exact repeats. Identical values can stand only once. Like-named read-outs stand apart in the source and are kept apart here.

Experiments:
[1] = tested on: MDA-231 cells; assay: Enumeration of CTCs in blood of tumor-bearing mice after mobilization with AMD-3100; format: in vivo; conditions: for mobilization of cancer cells (CTCs) into the blood: compound alone, tumor-bearing mice
Procedure: Blood was withdrawn by cardiac puncture. AMD-3100 was purchased from Selleckchem (S8030) dissolved in PBS at 1 mg/ml and at −20° C. before use. Tumor-bearing animals were anesthetized as described above and 200-250 μl of systemic blood was collected at the designated time points and transferred in K2EDTA tubes. Blood samples were placed on ice, diluted using a saline buffer (0.5% BSA, 2% EDTA in PBS) at a 1:8 ratio and then filtered through a 70 μm cell strainer immediately prior to achieve a label-free, microfluidic isolation of CTCs. For enumeration, the Captor® system (Clearbridge Biomedics, Singapore) was used, which allows visualization of individual CTCs trapped into crescent-shape microwells. Following complete flowing of the diluted blood, the CTChip® was transferred to the stage of an inverted fluorescent microscope and all trapped CTCs were counted. For the recovery of fully viable CTCs we used the ClearCell® FX system (Clearbridge Biomedics, Singapore), which employs the CTChip® FR1 to isolate cancer cells from blood cells based on size, deformability and inertia through a Dean Flow Fractionation process.
CTCs were lysed on the same microfluidic chip used for capture using an ice-cooled RNA lysis buffer (Norgen Bioteck Corp.). […] Genespecific primers and probe sets were purchased from Applied Biosystem.
Cancer cells in the blood are a dynamic pool that constantly fluctuates as cells enter circulation upon being dislodged from tumors, reseed additional sites or perish to anoikis if they fail to do so. This makes determining the time spent by cancer cells in the blood problematic. A major hurdle for these types of studies is the limited ability to monitor the timing of CTCs' entry into and egress from the blood during steady-state conditions. To circumvent these issues, cancer cells were acutely mobilized from tumors in the skeleton and soft-tissues in mice—above steady-state counts—and then thereafter the blood was sampled at specific intervals, reasoning that a time-dependent decline of the number of CTCs in the blood would result from cancer cells seeding back to tissues and dying in circulation. […] When spreading via the systemic circulation, cancer cells become susceptible to anoikis and extending the time spent in the blood increases the odds of incurring this form of apoptotic cell death.

[2] = tested on: MDA-231 human breast cancer cells; assay: Model of tumor seeding: MDA-231 cells inoculated intracardially, DTCs in skeleton at 24 hours; conditions: for seeding of the skeleton by MDA-231 breast cancer cells: SCID mice, i.p. one hour before and 3 hours after inoculation (Compound XXII 10 mg/kg); for reduction in DTCs vs vehicle: 24 hours
Procedure: Female SCID mice (Taconic CB17-SCRF, ˜20 g body weight) were housed in a germfree barrier. At 6 weeks of age, mice were anesthetized with a mixture of ketamine (80 mg/kg) and xylazine (10 mg/kg). […] After intracardiac injection, the experimenter distributed each animal in unlabeled cages. Each cage was randomly assigned to different treatment groups by a second experimenter.
The dosing regimen was selected based on results from pharmacokinetic analyses. […] For the detection and enumeration of single cancer cells, the experimenter was not blinded but was assisted by the Nuance FX multiplex imaging software (see below). A fluorescence image was acquired for each tissue section analyzed, approximately 36 serial sections spanning the entire width of each knee-joint. The identification and enumeration of single cells was obtained by three different experimenters, including the Principal Investigator, and occasional discrepancies reconciled prior to compiling the final data.
Animal model of tumor seeding: SCID mice (Taconic CB17-SCRF, ˜25 g body weight) were housed in a germ-free barrier. At 6 weeks of age, mice were anesthetized with a mixture of ketamine (80 mg/kg) and xylazine (10 mg/kg). Tumor cells were delivered as a 100 μl suspension of serum-free culture medium by carefully accessing the left ventricle of the heart through the chest with an insulin syringe mounting a 30-gauge needle. […] Species- and class-matched irrelevant immunoglobulins (Rabbit IgG, 15 μg/ml, Jackson ImmunoResearch) or DMSO were used for the control groups. […] The dosing regimen was selected based on results from pharmacokinetic analyses. […] Blue-fluorescent beads, 10 μm-polystyrene in diameter (Invitrogen-Molecular Probes) were included in the injection medium and visualized by fluorescence microscopy to validate injection efficiency. Mice showing non-homogenous distribution of or lacking fluorescent beads in tissue sections of lungs and kidneys were removed from the study.
Soft-tissue organs were then placed either in 30% sucrose for cryoprotection or 1% paraformaldehyde for long-term storage. Bones were decalcified in 0.5M EDTA (Fisher Scientific) for 7 days followed by incubation in 30% sucrose. Tissues were maintained at 4° C. for all aforementioned steps and frozen in O.C.T. medium (Sakura Finetek) by placement over dry-ice chilled 2-methylbutane. Soft-tissue organs as well as knee joints (femora and tibiae) were processed to obtain serial frozen sections, 80 μm in thickness, using a Microm HM550 cryostat.
Fluorescent images of skeletal metastases were acquired using an Axio Scope.A1 microscope (Zeiss) connected to a Nuance Multispectral Imaging System (PerkinElmer). Digital images were analyzed and processed using the Nuance Software (v. 2.4). […]

[3] = tested on: disseminated tumors; assay: Additional metastatic lesions after AMD-3100 mobilization; format: in vivo, mice
Procedure: Complementary studies were conducted in mice harboring experimental metastases as detected at one week post-grafting, and left either untreated or treated at the second and third week with AMD-3100, alone or in combination with Compound XXII (FIG. 10B). All lesions identified at the fifth week that had not been previously detected at the second week of the experiment were counted and compared among treatment groups.

[4] = Pharmacokinetic studies in mice, 10 mg/kg i.p.; conditions: 1 hour, vs 10 nM
Procedure: (§2) Animals were then anesthetized as described above and 300 μl of blood samples were collected by cardiac puncture at the designated time points and transferred in K2EDTA tubes. Blood samples were placed on ice and tested after dilution.

[5] = tested on: MDA-231 cells; assay: Model of metastatic disease: one-week MDA-231 tumors, bioluminescence imaging; format: in vivo, mice
Procedure: (§1) One week after intracardiac injection, animals were randomly assigned to control and treated group and then imaged for tumors in the skeleton and soft-tissue organs. Vehicle or Compound XXII (10 mg/kg) were administered i.p. twice/day, for the entire duration of the study and animals were imaged weekly. Doxorubicin was purchased from LEK Laboratories (D5794), dissolved in PBS at 1 mg/ml and stored at −20° C. before use. All experiments were performed in agreement with NIH guidelines for the humane use of animals. The Drexel University College of Medicine Committee approved all protocols involving the use of animals for the Use and Care of Animals.
MDA-231 cells were stably transduced with the pLeGo-IG2-Luc2 vector. Prior to imaging, animals were injected i.p. with 150 mg/kg of D-luciferin (ViVoGlo, Promega) and anesthetized using 3% isoflurane. Animals were then transferred to the chamber of an IVIS Lumina XR (PerkinElmer) where they received 2% isoflurane throughout the image acquisition. Fifteen minutes after injection of the substrate, five-minute exposures of both dorsal and ventral views were obtained and quantification and analysis of bioluminescence was performed using the Living Image software.
To determine whether the pharmacologic targeting of CX3CR1 with Compound I would produce similar effects, mice were grafted with MDA-231 cells and at the first week post-IC injection were randomized and administered with either vehicle or 10 mg/Kg Compound I i.p. twice daily for three weeks, based on pharmacokinetics studies with this compound. Animals were imaged weekly before being euthanized, and treatment with Compound I led to a reduction in the number of tumor foci and overall tumor burden, at least as effectively as observed using CRISPRi (FIGS. 5A-5B).

[6] = in vivo; conditions: mouse, ip, 10 mg/kg
Procedure: as §2

[7] = tested on: MDA-231 cells; assay: Reseeding of CTCs to bone and lungs (GFP/CM-Dil double-labeled cells); format: in vivo, mice; conditions: AMD-3100 with Compound XXII 10 mg/Kg i.p. 1 hr prior and 3 hrs after; 12 or 24 hours
Procedure: The CellTracker™ CM-Dil (ThermoFisher Scientific) was diluted as 50 μg in 50 μl of DMSO to prepare a stock solution. Immediately before use, the stock solution was diluted with D-PBS to a 1 μM working solution. Cells were exposed to the working solution at 37° C. for 5 minutes and then at 4° C. for 15 minutes and then washed with PBS followed by F-12 cell culture medium.
Green-fluorescent MDA-231 cells were labeled with the cell-tracker CM-Dil, a widely validated red-fluorescent dye that, while being stably retained by non-dividing cells, is transferred to daughter cells upon mitosis and eventually becomes too diluted and undetectable in rapidly dividing cell populations. Based on these features, GFP/CM-Dil double-labeled cancer cells, when reseeding from established tumors would emit green fluorescence but lack red fluorescence, as the results of high proliferation during tumor growth and consequential dilution of the CM-Dil dye. Cancer cells that became dormant upon seeding different tissues following intracardiac injection would retain the CM-Dil dye, thereby emitting signals in both green and red fluorescent spectra (FIG. 9A). For these experiments, mice were grafted with double-labeled cancer cells in the left cardiac ventricle and allowed to develop tumors for two weeks. […]

[8] = tested on: disseminated tumors; format: in vivo
Procedure: as §1
Mice harboring 1-week disseminated tumors were treated with the anthracycline antibiotic Doxorubicin (5 mg/Kg, i.p., q.w.), alone or in combination with Compound XXII (10 mg/Kg, i.p., b.i.d.) for the entire duration of the study. […] When the effects on both number of tumors and tumor burden were examined. […] It could be argued that this lack of effect shown by the chemotherapeutic drug was likely attributable to the short length of treatment, shorter than common protocols used in oncology practice. […] The acute toxicity of Doxorubicin precluded longer experiments. In order to test whether retaining cancer cells in the blood circulation by targeting CX3CR1 could extend their exposure to chemotherapeutics, the fluorescent properties of Doxorubicin were utilized and the red-spectrum emitted fluorescence of CTCs was collected at steady state from mice harboring disseminated tumors which were treated with Doxorubicin (alone, one hour after or three hours prior to administration of Compound XXII). CTCs were collected—independently of the type of treatment—four hours after Doxorubicin administration.

[9] = tested on: disseminated tumors; assay: Docetaxel alone or with Compound XXII in animals bearing disseminated tumors; format: in vivo
Procedure: Animals bearing disseminated tumors were treated with Docetaxel (2 mg/Kg, i.p., bis in 7 d.) either alone or in combination with Compound XXII (10 mg/Kg i.p., q12h) and compared to Compound XXII alone (FIGS. 11E-11G).

[10] = tested on: 4T-1 murine breast cancer cells; assay: Model of tumor seeding: 4T-1 cells inoculated intracardially in Balb-C mice; format: in vivo; conditions: 10 mg/kg i.p. one hour before and 3 hours after inoculation
Procedure: Mice were sacrificed 24 hours post-injection.

[11] = single dose 5 mg/kg, mice with 3-week tumors
[12] = 10 mg/kg i.p. twice/day from one week post-inoculation, vs vehicle
[13] = Doxorubicin 5 mg/Kg q.w. in combination with Compound XXII 10 mg/Kg i.p. b.i.d.
[14] = Doxorubicin alone 5 mg/Kg i.p. q.w., two weeks

c1cc(CN2CCCNCCNCCCNCC2)ccc1CN1CCCNCCNCCCNCC1 [AMD-3100, reference compound]
area under the curve of CTC counts vs time ([1]; AMD-3100 alone): 345 | mobilization of cancer cells (CTCs) into the blood [1]: rapid increase in the number of CTCs | time of peak number of CTCs post-treatment [1, 11]: 3 h | time of return of CTCs to steady-state counts [1, 11]: 48 h | seeding of the skeleton by MDA-231 breast cancer cells [2]: unaffected | number of additional lesions vs untreated animals ([3]; AMD-3100 alone at second and third week, lesions at fifth week): doubled number of additional lesions

O=c1c2cccn2c2ccccc2n1CCCN1CCC(c2ccc(Cl)cc2)CC1 [Compound I, 5-(3-(4-(4-chlorophenyl)piperidin-1-yl)propyl)pyrrolo[1,2-a]quinoxalin-4(5H)-one]
reduction in DTCs vs vehicle ([2]; 10 mg/Kg i.p. twice, one hour prior and three hours after IC inoculation): approximately 60% | reduction in DTCs vs vehicle ([2]; MDA-231 cells pre-incubated with 10 nM compound): approximately 60% | increase of blood level over lowest fully effective dose in vitro [4]: 20 fold | number of tumors (tumor foci) [5, 12]: reduction | overall tumor burden [5, 12]: reduction | concentration at 1 h ([6]; in vivo): 89 ng/mL and 210 nM

O=C1CN(CCCn2c(=O)c3cccn3c3ccccc32)CCN1c1ccc(Cl)cc1 [Compound XXII, 5-(3-(4-(4-chlorophenyl)-3-oxopiperazin-1-yl)propyl)pyrrolo[1,2-a]quinoxalin-4(5H)-one]
area under the curve of CTC counts vs time ([1]; AMD-3100 combined with Compound XXII, then Compound XXII alone twice/day): 731 | percentage of apoptotic CTCs (Bax/Bcl-2 ratio) vs AMD-3100 alone ([1]; AMD-3100 in combination with Compound XXII, CTCs collected at 12 and 24 hours): increased the percentage of apoptotic CTCs | magnitude of increase in CTC counts vs AMD-3100 alone ([1]; Compound XXII co-administered with AMD-3100): more than two-fold higher | mobilization of cancer cells (CTCs) into the blood [1]: does not mobilize cancer cells back in the blood | number of reseeded cancer cells in lung and knee-joints [7]: dramatically reduced | number of CTCs positive for intracellular Doxorubicin ([8]; Compound XXII administered prior to Doxorubicin, CTCs collected four hours after Doxorubicin): significant increase | anti-tumor effect compared with Doxorubicin ([8]; Compound XXII alone 10 mg/Kg i.p. b.i.d., short period of time): superior anti-tumor effect than Doxorubicin | containment of tumor numbers [8, 13]: comparable to Compound XXII alone | mitigation of tumor burden [8, 13]: comparable to Compound XXII alone | synergistic effects of combination ([8]; Doxorubicin combined with Compound XXII): Synergistic effects were minimal | tumor burden after one week of treatment vs Compound XXII alone ([8]; Doxorubicin in combination with Compound XXII, 1 week): significantly superior effect | seeding of the skeleton by MDA-231 breast cancer cells [2]: severely impaired | overall tumor burden, % of the levels in the control group ([5]; 10 mg/kg i.p. twice/day from one week post-inoculation): below 50% | number of tumors (tumor foci) [5, 12]: strongly reduced | overall tumor burden [5, 12]: strongly reduced | overall survival ([5]; 10 mg/kg i.p. twice/day, Kaplan-Meier, vs vehicle): increase in overall survival | overall efficacy for lowering total tumor burden ([9]; Compound XXII alone 10 mg/Kg i.p. q12h, each time point): comparable to the current standard of care, docetaxel alone | synergistic effects of combination ([9]; Docetaxel with Compound XXII, especially after 11 days of treatment): Synergistic effects were observed | AMD-3100-induced increase of additional lesions ([3]; AMD-3100 in combination with Compound XXII): ablated | concentration at 1 h ([6]; plasma): ~200 ng/mL | concentration at 6 h ([6]; plasma): 60 ng/mL | seeding of the skeleton by 4T-1 breast cancer cells [10]: severely impaired

COc1cccc2c1C(=O)c1c(O)c3c(c(O)c1C2=O)C[C@@](O)(C(=O)CO)C[C@@H]3O[C@H]1C[C@H](N)[C@H](O)[C@H](C)O1 [Doxorubicin, reference compound]
number of tumors vs control [8, 14]: failed to show any significant effect | tumor burden vs control [8, 14]: failed to show any significant effect

CC(=O)O[C@@]12CO[C@@H]1C[C@H](O)[C@@]1(C)C(=O)[C@H](O)C3=C(C)[C@@H](OC(=O)[C@H](O)[C@@H](NC(=O)OC(C)(C)C)c4ccccc4)C[C@@](O)([C@@H](OC(=O)c4ccccc4)[C@H]21)C3(C)C [docetaxel, reference compound]
tumor growth ([9]; docetaxel alone 2 mg/Kg i.p. bis in 7 d.): significantly suppressed tumor growth
